Reference: patent US20230109839A1, “THERAPEUTIC AGENT FOR TAUOPATHIES” (SUMITOMO PHARMA CO., LTD., priority 2020, published 2023)
Read-outs that look alike come from different tables or passages of the source.

Molecular target: T1, human Nav1.1 (Homo sapiens, UniProt P35498)
T1 construct: host or cells: HEK293
Assay: Amplification of Nav1.1-derived voltage-gated sodium current (Nav1.1 current), automated patch clamp (Test 1)
Format: cell-based
Method in brief: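 HEK293 cells stably expressing human Nav1.1, restricted to cells with >500 pA current, were recorded by automated voltage-clamp patch clamp with a ramp voltage stimulus. Compounds were applied in HEPES-buffered extracellular solution with 1% DMSO. Amplification (%) = 100×(peak or AUC after/before compound)−100.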

[1] = Concentration for evaluation 10 μM, HEK293 cell line stably expressing human Nav1.1
[2] = Concentration for evaluation 1 μM, HEK293 cell line stably expressing human Nav1.1
[3] = HEK293, Concentration for evaluation 1 μM, HEK293 cell line stably expressing human Nav1.1, read-out: Nav1.1 current amplification rate (%)
[4] = concentration for evaluation 1 μM, HEK293 stably expressing human Nav1.1
[5] = Concentration for evaluation 50 μM, HEK293 cell line stably expressing human Nav1.1
[6] = Concentration for evaluation 3 μM, HEK293 cell line stably expressing human Nav1.1
[7] = HEK293, concentration for evaluation 1 μM, HEK293 stably expressing human Nav1.1, read-out: Nav1.1 current amplification rate (%)

CCCCN(C)c1ccc(=O)n(CC(=O)Nc2ccc(C#N)cc2)n1 [Example 30]
Nav1.1 current amplification rate (%) [1]: 77%

Cc1ccc(-c2ccc(=O)n(CC(=O)Nc3ccnnc3)n2)cc1 [Example 142]
Nav1.1 current amplification rate (%) [1]: 34%

CN(c1cnc2cnn(CC(=O)N3CCc4c(CN5CC=CC5)cccc43)c2n1)C1CC1 [Example 720]
Nav1.1 current amplification rate (%) [2]: 230%

CC1CC=C(c2ccc(=O)n(CC(=O)Nc3cccc(-n4ccnc4)c3)n2)CC1 (stereo not shown) [Example 363]
Nav1.1 current amplification rate (%) [2]: 174%

C[C@H]1CC[C@H](c2ccc(=O)n(CC(=O)Nc3ccc(C#N)cc3)n2)CC1 [Example 43]
Nav1.1 current amplification rate (%) [1]: 174%

CC1CC=C(c2cnc3cnn(CC(=O)Nc4ccc5ocnc5c4)c3n2)CC1 (stereo not shown) [Example 735]
activation at 1 µM [3]: 321%

Cc1cc(NC(=O)Cn2ncc3ncc(N(C)C4CCCC4)nc32)cc2ncnn12 [Example 672]
Nav1.1 current amplification rate (%) [2]: 56%

O=C(Cn1ncc2cnc(N3CCC4C(C3)C4(F)F)nc21)Nc1ccc2ncnn2c1 (stereo not shown) [Example 816]
Nav1.1 current amplification rate (%) [4]: 13%

CC1CC=C(c2cnc3cnn(CC(=O)N4CCN(c5cccnc5)CC4)c3n2)CC1 (stereo not shown) [Example 740]
activation at 1 µM [3]: 91%

CN(c1cnc2cnn(CC(=O)Nc3ccc4ncnn4c3)c2n1)C1CCCC1 [Example 669]
Nav1.1 current amplification rate (%) [2]: 30%

Cc1nc(N2CCN(C(=O)Cn3nc(C4=CCC(C)CC4)ccc3=O)CC2)no1 (stereo not shown) [Example 406]
Nav1.1 current amplification rate (%) [5]: 68%

O=C(Cn1ncc2ccc(C3=COCCC3)nc21)Nc1ccn2ccnc2c1 [Example 869]
Nav1.1 current amplification rate (%) [4]: 17%

CC1CC=C(c2ccc(=O)n(CC(=O)Nc3cc4nccn4cn3)n2)CC1 (stereo not shown) [Example 328]
Nav1.1 current amplification rate (%) [6]: 58%

CN(c1ncc2cnn(CC(=O)Nc3ccc4ncnn4c3)c2n1)C1CCCC1 [Example 814]
Nav1.1 current amplification rate (%) [4]: 87%

CN(c1cnc2cnn(CC(=O)Nc3cnc4cccnc4c3)c2n1)C1CC(C)(C)C1 [Example 755]
activation at 1 µM [3]: 245%

CC1CC=C(c2ccc(=O)n(CC(=O)N3CCN(c4cncc(F)c4)CC3)n2)C1 (stereo not shown) [Example 484]
Nav1.1 current amplification rate (%) [1]: 224%

COc1cc(=O)n(CC(=O)N2CCc3c(N4CCOCC4)cccc32)nc1C1=CCC(C)(C)CC1 [Example 470]
Nav1.1 current amplification rate (%) [1]: 522%

CN(c1ncc2cnn(CC(=O)Nc3ccc4ncnn4c3)c2n1)C1CC2(CC2)C1 [Example 820]
Nav1.1 current amplification rate (%) [4]: 50%

CN(CC1CCC1)c1ncc2cnn(CC(=O)Nc3ccn4ncnc4c3)c2n1 [Example 798]
Nav1.1 current amplification rate (%) [4]: 193%

CC1CC=C(c2ccc(=O)n(CC(=O)N3CCc4c(-c5cn[nH]c5)cccc43)n2)CC1 (stereo not shown) [Example 254]
Nav1.1 current amplification rate (%) [6]: 309%

O=C(Cn1ncc2ccc(-c3ccc(F)cc3F)nc21)Nc1ccn2ccnc2c1 [Example 865]
Nav1.1 current amplification rate (%) [4]: 14%

Cc1nc2cc(NC(=O)Cn3nc(C4=CCC(C)CC4)ccc3=O)ccc2o1 (racemic) [Example 422]
Nav1.1 current amplification rate (%) [1]: 287%

COc1cc(C2=CCC(C)(C)CC2)nn(CC(=O)N2CCc3c(N4CCOCC4)cccc32)c1=O [Example 468]
Nav1.1 current amplification rate (%) [2]: 275%

CC1CC=C(c2ccc(=O)n(CC(=O)Nc3ccc4ncccc4c3)n2)CC1 (stereo not shown) [Example 357]
Nav1.1 current amplification rate (%) [5]: 43%

CC1CCN(c2ncc3cnn(CC(=O)Nc4ccn5ccnc5c4)c3n2)CC1 [Example 831]
activation at 1 µM [7]: 128%

CN(c1ncc2cnn(CC(=O)Nc3cnc4cccnc4c3)c2n1)C1CCCC1 [Example 849]
activation at 0.3 µM (HEK293, concentration for evaluation 0.3 μM, HEK293 stably expressing human Nav1.1, read-out: Nav1.1 current amplification rate (%)): 57%

Cc1cc(NC(=O)Cn2ncc3ncc(N(C)C4CCC4)nc32)cc2ncnn12 [Example 687]
Nav1.1 current amplification rate (%) [2]: 67%

O=C(Cn1nc(C2=CCCCC2)ccc1=O)Nc1ccn2ccnc2c1 [Example 458]
Nav1.1 current amplification rate (%) [1]: 24%

O=C(Cn1ncc2cnc(N3CCC4(CC4)C(F)(F)C3)nc21)Nc1ccc(-n2ccnc2)nc1 [Example 824]
Nav1.1 current amplification rate (%) [4]: 240%

CC1CC=C(c2ccc(=O)n(CC(=O)N3CCc4c(CO)cccc43)n2)CC1 (stereo not shown) [Example 266]
Nav1.1 current amplification rate (%) [6]: 108%

CN(c1cnc2cnn(CC(=O)N3CCc4cc(C#N)ccc43)c2n1)C1CCC1 [Example 691]
Nav1.1 current amplification rate (%) [6]: 11%

CCc1nc2cc(NC(=O)Cn3nc(N4CCC(C)CC4)ccc3=O)ccc2o1 [Example 97]
Nav1.1 current amplification rate (%) [1]: 296%

Cc1ncc(-c2cncc(NC(=O)Cn3nc(C4=CCC(C)CC4)ccc3=O)c2)o1 (stereo not shown) [Example 380]
Nav1.1 current amplification rate (%) [2]: 82%

CC1CCN(c2ncc3cnn(CC(=O)Nc4cnc(C#N)cn4)c3n2)CC1(F)F (stereo not shown) [Example 847]
activation at 1 µM [7]: 132%

CC(C)CN(C)c1cnc2cnn(CC(=O)Nc3ccc4ncnn4c3)c2n1 [Example 661]
Nav1.1 current amplification rate (%) [2]: 12%

Cc1cc(NC(=O)Cn2ncc3ncc(N(C)C4CC4)nc32)cc2ncnn12 [Example 704]
Nav1.1 current amplification rate (%) [2]: 109%

CC1CC=C(c2ccc(=O)n(CC(=O)N3CCc4c3ccnc4Cl)n2)CC1 (stereo not shown) [Example 247]
Nav1.1 current amplification rate (%) [1]: 53%

COc1cnc(C2=CCN(C(=O)Cn3nc(C4=CCC(C)CC4)ccc3=O)CC2)cn1 (stereo not shown) [Example 399]
Nav1.1 current amplification rate (%) [1]: 102%

CC1CCN(c2ccc(=O)n(CC(=O)Nc3ccc4cnn(C)c4c3)n2)CC1 [Example 83]
Nav1.1 current amplification rate (%) [1]: 45%

Cc1nc2cc(NC(=O)Cn3nc(C4=CCC(C)CC4)ccc3=O)ccn2c1C (stereo not shown) [Example 329]
Nav1.1 current amplification rate (%) [6]: 100%

O=C(Cn1ncc2ncc(N3CCC4(CC4)C(F)(F)C3)nc21)Nc1ccc(-n2ccnc2)nc1 [Example 747]
activation at 1 µM [3]: 73%

CC1CC=C(c2ccc(=O)n(CC(=O)N3CCc4c3ccnc4C3=CCN(C)C3)n2)CC1 (stereo not shown) [Example 283]
Nav1.1 current amplification rate (%) [2]: 15%

O=C(Cn1nc(C2=CCCC2)ccc1=O)N1CCc2c(N3CCOCC3)cccc21 [Example 481]
Nav1.1 current amplification rate (%) [1]: 128%

CC1CC=C(c2ccc(=O)n(CC(=O)Nc3ccn4ccnc4n3)n2)CC1 (stereo not shown) [Example 242]
Nav1.1 current amplification rate (%) [1]: 97%

CC1CC=C(c2ccc(=O)n(CC(=O)N3CCC(Oc4ccccc4)CC3)n2)CC1 (stereo not shown) [Example 390]
Nav1.1 current amplification rate (%) [1]: 50%

CC1(C)CC=C(c2ccc(=O)n(CC(=O)N3CCc4c(N5CCOCC5)cccc43)n2)CC1 [Example 432]
Nav1.1 current amplification rate (%) [2]: 280%

Cc1nn(CC(=O)Nc2ccc3ncnn3c2)c2nc(N3CCC4(CCC4)C3)cnc12 [Example 739]
activation at 3 µM (HEK293, Concentration for evaluation 3 μM, HEK293 cell line stably expressing human Nav1.1, read-out: Nav1.1 current amplification rate (%)): 10%

CC1CC=C(c2ccc(=O)n(CC(=O)N3CCN(Cc4ccncc4)CC3)n2)CC1 (stereo not shown) [Example 392]
Nav1.1 current amplification rate (%) [1]: 53%

Cc1cc(NC(=O)Cn2nc(C3=CCC(F)(F)CC3)ccc2=O)cc(C)n1 [Example 102]
activation at 10 µM (HEK293, Concentration for evaluation 10 μM, HEK293 cell line stably expressing human Nav1.1, read-out: Nav1.1 current amplification rate (%)): 8%

Cc1nc2ccc(NC(=O)Cn3nc(C4=CCC(C)CC4)ccc3=O)cn2n1 (stereo not shown) [Example 347]
Nav1.1 current amplification rate (%) [2]: 37%

CC1CCN(c2ccc(=O)n(CC(=O)Nc3ccc4c(c3)CCNC4=O)n2)CC1 [Example 93]
Nav1.1 current amplification rate (%) [1]: 65%

N#Cc1ccc(NC(=O)Cn2nc(N3CCC4(CCCC4)C3)ccc2=O)cc1 [Example 24]
Nav1.1 current amplification rate (%) [1]: 286%

Cc1ccc(-c2cnc3cnn(CC(=O)Nc4ccn5ncnc5c4)c3n2)c(F)c1 [Example 574, 2-[6-(2-Fluoro-4-methylphenyl)-1H-pyrazolo[3,4-b]pyrazin-1-yl]-N-([1,2,4]triazolo[1,5-a]pyridin-7-yl)acetamide]
activation at 1 µM [3]: 303%

CC1CC=C(c2ccc(=O)n(CC(=O)N3CC=C(c4cccnc4)CC3)n2)CC1 (stereo not shown) [Example 402]
Nav1.1 current amplification rate (%) [1]: 323%

COc1cc(-c2cc(Cl)cs2)nn(CC(=O)Nc2ccn3ccnc3c2)c1=O [Example 466]
Nav1.1 current amplification rate (%) [1]: 233%

CC1CC=C(c2ccc(=O)n(CC(=O)Nc3cccc(N4CCOCC4)c3F)n2)CC1 (stereo not shown) [Example 322]
Nav1.1 current amplification rate (%) [6]: 115%

CN(c1cnc2cnn(CC(=O)N3CCc4c(C#N)cccc43)c2n1)C1CC1 [Example 715]
Nav1.1 current amplification rate (%) [2]: 13%

CC1CCN(c2ccc(=O)n(CC(=O)Nc3ccc4ncn(C)c4c3)n2)CC1 [Example 85]
Nav1.1 current amplification rate (%) [1]: 15%

CCC1CC=C(c2cnc3cnn(CC(=O)Nc4ccc5ncnn5c4)c3n2)CC1 (stereo not shown) [Example 650]
Nav1.1 current amplification rate (%) [2]: 26%

CC1CCN(c2ncc3cnn(CC(=O)Nc4ccc5ncnn5c4)c3n2)CC1(F)F (stereo not shown) [Example 815]
Nav1.1 current amplification rate (%) [4]: 86%

CC1(C)CC=C(c2ccc(=O)n(CC(=O)N3CCc4c(OC5COC5)cccc43)n2)CC1 [Example 436]
Nav1.1 current amplification rate (%) [1]: 226%

CC1CC=C(c2ccc(=O)n(CC(=O)N3CCc4cc(OCC(C)(C)O)ccc43)n2)CC1 (stereo not shown) [Example 320]
Nav1.1 current amplification rate (%) [2]: 10%

CC1(C)CC=C(c2ccc(=O)n(CC(=O)Nc3ccn4nccc4c3)n2)CC1 [Example 427]
Nav1.1 current amplification rate (%) [1]: 172%

CN(c1ncc2cnn(CC(=O)Nc3ccn4ncnc4c3)c2n1)C1CCCC1(F)F (stereo not shown) [Example 801]
Nav1.1 current amplification rate (%) [4]: 122%

CN(c1cnc2cnn(CC(=O)Nc3ccn4ccnc4c3)c2n1)C1CC1 [Example 702]
Nav1.1 current amplification rate (%) [2]: 60%

N#Cc1ccc(NC(=O)Cn2nc(C3=CCCCC3)ccc2=O)cc1 [Example 39]
Nav1.1 current amplification rate (%) [1]: 125%

Cc1noc2ccc(NC(=O)Cn3nc(N4CCC(C)CC4)ccc3=O)cc12 [Example 70]
Nav1.1 current amplification rate (%) [1]: 68%
